{
  "source": "the supplement of paper PMC11208160",
  "data": [
    {"assay": "recombinant UMI read abundance after kanamycin selection (control-corrected) (log10(CPM+1)); higher = more efficient recombination; extreme values may be limits of the assay; sequences stand for … in AGTGCAGAGAAAATCGGCCAGTTTTCTCTGCCTGCAGTCCGCATGCCGTGGGACCCCTTGGGTTCTAACCTGTTGCCTAGATTTATGCAGCGGACTGCCTTTCTCCCAAAGTGATAAACCGG…AGGTTGGTTTCACT; site = the 11-nt donor", "method_in_brief": "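Values, expressed as log10(CPM+1), derive from recombinant UMI counts converted to CPM, averaged across replicates and scaled by control-derived factors. Plating was with IPTG (0.07 mM) plus kanamycin or unselected, two replicates each. The screen pooled donor and donor-binding-loop pairs for the IS621 bridge recombinase in Escherichia coli.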", "values": [
      {"sequence": "CTGGAAACATGGACCGGTTTTCCCGGTAATCCGTATTTGCA (site CTGGAATCTTG)", "recombinant UMI read abundance (log10)": 1.21},
      {"sequence": "CTGGAAACATGGACCGGTTTTCCCGGTAATCCGTATTTGCA (site CTGGACACTTG)", "recombinant UMI read abundance (log10)": 0.00329},
      {"sequence": "CTGGAAACATGGACCGGTTTTCCCGGTAATCCGTATTTGCA (site CTGGAGACTTG)", "recombinant UMI read abundance (log10)": 1.43},
      {"sequence": "CTGGAAACATGGACCGGTTTTCCCGGTAATCCGTATTTGCA (site CTGGATACTTG)", "recombinant UMI read abundance (log10)": 0.526},
      {"sequence": "CTGGAAACATGGACCGGTTTTCCCGGTAATCCGTATTTGCA (site CTGGCAACTTG)", "recombinant UMI read abundance (log10)": 0.416},
      {"sequence": "CTGGAAACATGGACCGGTTTTCCCGGTAATCCGTATTTGCA (site CTGGGAACTTG)", "recombinant UMI read abundance (log10)": 0.596},
      {"sequence": "CTGGAAACATGGACCGGTTTTCCCGGTAATCCGTATTTGCA (site CTGGTAACTTG)", "recombinant UMI read abundance (log10)": 0.00624},
      {"sequence": "CTGGAAACATGGACCGGTTTTCCCGGTAATCCGTATTTGCA (site CTGTAAACTTG)", "recombinant UMI read abundance (log10)": 0.123},
      {"sequence": "CTGGAAACATGGACCGGTTTTCCCGGTAATCCGTATTTGCA (site CTTGAAACTTG)", "recombinant UMI read abundance (log10)": 0.578},
      {"sequence": "CTGGAAACATGGACCGGTTTTCCCGGTAATCCGTATTTGCA (site GTGGAAACTTG)", "recombinant UMI read abundance (log10)": 0.00967},
      {"sequence": "CTGGAAACATGGACCGGTTTTCCCGGTAATCCGTATTTGCA (site TTGGAAACTTG)", "recombinant UMI read abundance (log10)": 0},
      {"sequence": "CTGGAAACATGGACCGGTTTTCCCGGTAATCCGTATTTGCC (site CTGGAAACTAG)", "recombinant UMI read abundance (log10)": 0},
      {"sequence": "CTGGAAACATGGACCGGTTTTCCCGGTAATCCGTATTTGCC (site CTGGAAACTCG)", "recombinant UMI read abundance (log10)": 0},
      {"sequence": "CTGGAAACATGGACCGGTTTTCCCGGTAATCCGTATTTGCC (site CTGGAAACTGG)", "recombinant UMI read abundance (log10)": 0},
      {"sequence": "CTGGAAACATGGACCGGTTTTCCCGGTAATCCGTATTTGCC (site CTGGAAACTTG)", "recombinant UMI read abundance (log10)": 0.22},
      {"sequence": "CTGGAAACATGGACCGGTTTTCCCGGTAATCCGTATTTGCG (site CTGGAAACTAG)", "recombinant UMI read abundance (log10)": 0},
      {"sequence": "CTGGAAACATGGACCGGTTTTCCCGGTAATCCGTATTTGCG (site CTGGAAACTCG)", "recombinant UMI read abundance (log10)": 2.37},
      {"sequence": "CTGGAAACATGGACCGGTTTTCCCGGTAATCCGTATTTGCG (site CTGGAAACTGG)", "recombinant UMI read abundance (log10)": 0},
      {"sequence": "CTGGAAACATGGACCGGTTTTCCCGGTAATCCGTATTTGCG (site CTGGAAACTTG)", "recombinant UMI read abundance (log10)": 1.72},
      {"sequence": "CTGGAAACATGGACCGGTTTTCCCGGTAATCCGTATTTGGT (site CTGGAAACTAC)", "recombinant UMI read abundance (log10)": 1.92},
      {"sequence": "CTGGAATCATGGACCGGTTTTCCCGGTAATCCGTATTTGCA (site CTGGAAACTTG)", "recombinant UMI read abundance (log10)": 1.56},
      {"sequence": "CTGGAATCATGGACCGGTTTTCCCGGTAATCCGTATTTGCA (site CTGGAACCTTG)", "recombinant UMI read abundance (log10)": 0},
      {"sequence": "CTGGAATCATGGACCGGTTTTCCCGGTAATCCGTATTTGCA (site CTGGAAGCTTG)", "recombinant UMI read abundance (log10)": 0},
      {"sequence": "CTGGAATCATGGACCGGTTTTCCCGGTAATCCGTATTTGCA (site CTGGAATCTTG)", "recombinant UMI read abundance (log10)": 2.19},
      {"sequence": "CTGGCATCATGGACCGGTTTTCCCGGTAATCCGTATTTGGC (site CTGGCATCTGC)", "recombinant UMI read abundance (log10)": 2.75},
      {"sequence": "CTGGCGTCATGGACCGGTTTTCCCGGTAATCCGTATTTGAG (site CTGGCGTCTCT)", "recombinant UMI read abundance (log10)": 0.929},
      {"sequence": "CTGGGAACATGGACCGGTTTTCCCGGTAATCCGTATTTGCA (site CTGGAAACTTG)", "recombinant UMI read abundance (log10)": 1.87},
      {"sequence": "CTGGGAACATGGACCGGTTTTCCCGGTAATCCGTATTTGCA (site CTGGCAACTTG)", "recombinant UMI read abundance (log10)": 0.789},
      {"sequence": "CTGGGAACATGGACCGGTTTTCCCGGTAATCCGTATTTGCA (site CTGGGAACTTG)", "recombinant UMI read abundance (log10)": 2.39},
      {"sequence": "CTGGGAACATGGACCGGTTTTCCCGGTAATCCGTATTTGCA (site CTGGTAACTTG)", "recombinant UMI read abundance (log10)": 0.262},
      {"sequence": "CTGGGCGCATGGACCGGTTTTCCCGGTAATCCGTATTTGCA (site AATACGCCTAT)", "recombinant UMI read abundance (log10)": 0.0174},
      {"sequence": "CTGGTATCATGGACCGGTTTTCCCGGTAATCCGTATTTGCC (site CTAGTATCTGT)", "recombinant UMI read abundance (log10)": 0},
      {"sequence": "CTGGTATCATGGACCGGTTTTCCCGGTAATCCGTATTTGCC (site CTGGTATCTGG)", "recombinant UMI read abundance (log10)": 0},
      {"sequence": "CTGGTTACATGGACCGGTTTTCCCGGTAATCCGTATTTGGC (site CTGGTTACTGC)", "recombinant UMI read abundance (log10)": 1.74},
      {"sequence": "CTGTACGCATGGACCGGTTTTCCCGGTAATCCGTATTTGGT (site CTGTACGCTAC)", "recombinant UMI read abundance (log10)": 1.26},
      {"sequence": "CTGTAGCCATGGACCGGTTTTCCCGGTAATCCGTATTTGAT (site CTGTAGCCTAT)", "recombinant UMI read abundance (log10)": 0.748},
      {"sequence": "CTGTAGGCATGGACCGGTTTTCCCGGTAATCCGTATTTGGC (site ATGTAGGCTGC)", "recombinant UMI read abundance (log10)": 0.626},
      {"sequence": "CTGTAGGCATGGACCGGTTTTCCCGGTAATCCGTATTTGGC (site CTGTAGGCTGC)", "recombinant UMI read abundance (log10)": 2.01},
      {"sequence": "CTGTAGGCATGGACCGGTTTTCCCGGTAATCCGTATTTGGC (site GTGTAGGCTGC)", "recombinant UMI read abundance (log10)": 0},
      {"sequence": "CTGTAGGCATGGACCGGTTTTCCCGGTAATCCGTATTTGGC (site TTGTAGGCTGC)", "recombinant UMI read abundance (log10)": 0},
      {"sequence": "CTGTAGGCATGGACCGGTTTTCCCGGTAATCCGTATTTGGG (site CTGTAGGCTCC)", "recombinant UMI read abundance (log10)": 0.27},
      {"sequence": "CTGTAGTCATGGACCGGTTTTCCCGGTAATCCGTATTTGTC (site CTGTAGTCTGA)", "recombinant UMI read abundance (log10)": 3.24},
      {"sequence": "CTGTCGCCATGGACCGGTTTTCCCGGTAATCCGTATTTGCG (site CTGTCGCCTCG)", "recombinant UMI read abundance (log10)": 0.00856},
      {"sequence": "CTGTGCGCATGGACCGGTTTTCCCGGTAATCCGTATTTGAC (site TCCCTGTCTTC)", "recombinant UMI read abundance (log10)": 0.0087},
      {"sequence": "CTGTTACCATGGACCGGTTTTCCCGGTAATCCGTATTTGCT (site CTGATACCTAG)", "recombinant UMI read abundance (log10)": 0},
      {"sequence": "CTGTTACCATGGACCGGTTTTCCCGGTAATCCGTATTTGCT (site CTGCTACCTAG)", "recombinant UMI read abundance (log10)": 0.146},
      {"sequence": "CTGTTACCATGGACCGGTTTTCCCGGTAATCCGTATTTGCT (site CTGGTACCTAG)", "recombinant UMI read abundance (log10)": 0},
      {"sequence": "CTGTTACCATGGACCGGTTTTCCCGGTAATCCGTATTTGCT (site CTGTTACCTAG)", "recombinant UMI read abundance (log10)": 0},
      {"sequence": "CTGTTTACATGGACCGGTTTTCCCGGTAATCCGTATTTGCT (site CAGTTTACTAG)", "recombinant UMI read abundance (log10)": 0.405},
      {"sequence": "CTGTTTACATGGACCGGTTTTCCCGGTAATCCGTATTTGCT (site CCGTTTACTAG)", "recombinant UMI read abundance (log10)": 1.15},
      {"sequence": "CTGTTTACATGGACCGGTTTTCCCGGTAATCCGTATTTGCT (site CGGTTTACTAG)", "recombinant UMI read abundance (log10)": 0},
      {"sequence": "CTGTTTACATGGACCGGTTTTCCCGGTAATCCGTATTTGCT (site CTGTTTACTAG)", "recombinant UMI read abundance (log10)": 2.02},
      {"sequence": "CTTAGCTCATGGACCGGTTTTCCCGGTAATCCGTATTTGCT (site CTTAGCTCTAG)", "recombinant UMI read abundance (log10)": 0},
      {"sequence": "CTTCAGCCATGGACCGGTTTTCCCGGTAATCCGTATTTGGA (site CTTCAGCCTTC)", "recombinant UMI read abundance (log10)": 0},
      {"sequence": "CTTCCCTCATGGACCGGTTTTCCCGGTAATCCGTATTTGTA (site CTTCACTCTTA)", "recombinant UMI read abundance (log10)": 0.00365},
      {"sequence": "CTTCCCTCATGGACCGGTTTTCCCGGTAATCCGTATTTGTA (site CTTCCCTCTTA)", "recombinant UMI read abundance (log10)": 2.49},
      {"sequence": "CTTCCCTCATGGACCGGTTTTCCCGGTAATCCGTATTTGTA (site CTTCGCTCTTA)", "recombinant UMI read abundance (log10)": 0.00376},
      {"sequence": "CTTCCCTCATGGACCGGTTTTCCCGGTAATCCGTATTTGTA (site CTTCTCTCTTA)", "recombinant UMI read abundance (log10)": 0.434},
      {"sequence": "CTTCTAACATGGACCGGTTTTCCCGGTAATCCGTATTTGCG (site CTTCTAACTCG)", "recombinant UMI read abundance (log10)": 0.213},
      {"sequence": "CTTCTCGCATGGACCGGTTTTCCCGGTAATCCGTATTTGTA (site CTTCTCACTTA)", "recombinant UMI read abundance (log10)": 0.459},
      {"sequence": "CTTCTCGCATGGACCGGTTTTCCCGGTAATCCGTATTTGTA (site CTTCTCCCTTA)", "recombinant UMI read abundance (log10)": 0.0264},
      {"sequence": "CTTCTCGCATGGACCGGTTTTCCCGGTAATCCGTATTTGTA (site CTTCTCGCTTA)", "recombinant UMI read abundance (log10)": 1.29},
      {"sequence": "CTTCTCGCATGGACCGGTTTTCCCGGTAATCCGTATTTGTA (site CTTCTCTCTTA)", "recombinant UMI read abundance (log10)": 0.0056},
      {"sequence": "CTTCTCTCATGGACCGGTTTTCCCGGTAATCCGTATTTGGA (site CTTCTCTCTTA)", "recombinant UMI read abundance (log10)": 0.0983},
      {"sequence": "CTTCTCTCATGGACCGGTTTTCCCGGTAATCCGTATTTGGA (site CTTCTCTCTTC)", "recombinant UMI read abundance (log10)": 1.35},
      {"sequence": "CTTCTCTCATGGACCGGTTTTCCCGGTAATCCGTATTTGGA (site CTTCTCTCTTG)", "recombinant UMI read abundance (log10)": 0},
      {"sequence": "CTTCTCTCATGGACCGGTTTTCCCGGTAATCCGTATTTGGA (site CTTCTCTCTTT)", "recombinant UMI read abundance (log10)": 0.925},
      {"sequence": "CTTCTCTCATGGACCGGTTTTCCCGGTAATCCGTATTTGTC (site CTTCTCTCTAA)", "recombinant UMI read abundance (log10)": 1.6}
    ]}
  ]
}
